target: T1, ABCD2 WT (Homo sapiens, UniProt Q9UBJ2); assay: D2 correction dose-response assay: ABCD2 WT HiBit protein expression; type: cell-based; details: HEK-293/ABCD2 WT cells, 24 hours treatment, HiBit luminescence; class combines EC50 and Mean MaxAct (fold); read-out: ABCD2 WT EC50, Emax
T1 construct: expressed in transfected cells
T1 sequence (Q9UBJ2 1-740): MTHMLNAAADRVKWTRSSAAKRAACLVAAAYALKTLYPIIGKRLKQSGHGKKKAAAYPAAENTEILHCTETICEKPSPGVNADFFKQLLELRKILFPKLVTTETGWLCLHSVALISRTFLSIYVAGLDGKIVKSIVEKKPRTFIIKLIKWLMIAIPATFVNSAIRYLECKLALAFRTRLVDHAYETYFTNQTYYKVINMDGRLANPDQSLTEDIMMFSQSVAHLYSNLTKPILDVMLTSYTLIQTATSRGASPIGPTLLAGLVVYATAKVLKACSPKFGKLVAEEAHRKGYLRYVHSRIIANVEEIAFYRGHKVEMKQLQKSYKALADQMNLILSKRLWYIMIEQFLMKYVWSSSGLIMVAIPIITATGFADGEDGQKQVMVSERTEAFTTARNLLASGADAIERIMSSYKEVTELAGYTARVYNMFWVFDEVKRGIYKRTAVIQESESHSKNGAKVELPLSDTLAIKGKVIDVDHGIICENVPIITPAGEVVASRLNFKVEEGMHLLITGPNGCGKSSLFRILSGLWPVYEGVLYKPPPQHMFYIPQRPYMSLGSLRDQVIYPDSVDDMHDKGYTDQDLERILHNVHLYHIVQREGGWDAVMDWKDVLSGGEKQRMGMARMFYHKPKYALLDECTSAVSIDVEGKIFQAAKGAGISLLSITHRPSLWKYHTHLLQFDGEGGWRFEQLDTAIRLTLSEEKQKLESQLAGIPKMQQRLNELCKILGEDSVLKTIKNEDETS
Outline: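 HEK-293 cells stably expressing HiBit-tagged human ABCD2 WT were treated with 11 doses (3-fold dilutions, top final 30 μM, 0.3% DMSO) for 24 h at 37 °C. Expression was measured by HiBit lytic luminescence after 1 h at 25 °C, giving EC50 and Emax.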

Compound	EC50
Cc1cc(C)c(Oc2nc(N3CC4CC3CN4C(=O)C3CC3)ccc2NS(C)(=O)=O)c(C)c1 (single isomer, unassigned) [Compound I-18]	> 25 µM
Cc1cc(C)c(Oc2nc(N3CC4CC3CN4C(=O)C3CC3)ccc2NS(C)(=O)=O)c(C)c1 (single isomer, unassigned) [Compound I-19]	> 25 µM
Cc1cc(C)c(Oc2nc(N3CCC(C#N)C3)ccc2NS(C)(=O)=O)c(C)c1 (single isomer, unassigned) [Compound I-261]	1 to 10 µM
Cc1cc(C)c(Oc2nc(N3CCC(C#N)C3)ccc2NS(C)(=O)=O)c(C)c1 (single isomer, unassigned) [Compound I-262]	1 to 10 µM
Cc1cc(C)c(Oc2nc(N3CCN(C(=O)C4CC4)CC3)ccc2NS(C)(=O)=O)c(C2CC2)n1 [Compound I-20]	10 to 25 µM
Cc1cc(C)c(Oc2nc(N3CCn4c(C)nnc4C3)ccc2NS(C)(=O)=O)c(C)c1 [Compound I-21]	> 25 µM
Cc1cc(C)c(Oc2nc(N3CC4CC(C3)N4C(=O)C3CC3)ccc2NS(C)(=O)=O)c(C)c1 [Compound I-22]	1 to 10 µM
Cc1cc(C)c(Oc2nc(N3CCN(C(=O)C4COC4)CC3)ccc2NS(C)(=O)=O)c(C)c1 [Compound I-23]	10 to 25 µM
Cc1cc(C)c(Oc2nc(N3CCN(C(=O)C4CCC4)CC3)ccc2NS(C)(=O)=O)c(C)c1 [Compound I-24]	1 to 10 µM
Cc1cc(C)c(Oc2nc(N3CCC4(CN(C(=O)C5CC5)C4)C3)ccc2NS(C)(=O)=O)c(C)c1 [Compound I-25]	1 to 10 µM
Cc1cc(C)c(Oc2nc(N3CCN(S(C)(=O)=O)CC3)ccc2NS(C)(=O)=O)c(C)c1 [Compound I-26]	1 to 10 µM
CNC(=O)N1CCN(c2ccc(NS(C)(=O)=O)c(Oc3c(C)cc(C)cc3C)n2)CC1 [Compound I-27]	> 25 µM
Cc1cc(C2CC2)nc(C)c1Oc1nc(N2CCN(C(=O)C3CC3)CC2)ccc1NS(C)(=O)=O [Compound I-28]	> 25 µM
Cc1cc(C)c(Oc2nc(-c3cncc(Cl)c3)ccc2NS(=O)(=O)C(C)C)c(C)c1 [Compound I-29]	> 25 µM
Cc1cc(C)c(Oc2nc(N3CCn4c(cnc4C)C3)ccc2NS(C)(=O)=O)c(C)c1 [Compound I-30]	1 to 10 µM
Cc1cc(C)c(Oc2nc(N3CC4(CCN(C(=O)C5CC5)C4)C3)ccc2NS(C)(=O)=O)c(C)c1 [Compound I-31]	> 25 µM
Cc1cc(C)c(Oc2nc(N3CCN(C(=O)OC(C)C)CC3)ccc2NS(C)(=O)=O)c(C)c1 [Compound I-32]	1 to 10 µM
Cc1cc(C)c(Oc2nc(N3CCN(C(=O)N(C)C)CC3)ccc2NS(C)(=O)=O)c(C)c1 [Compound I-33]	10 to 25 µM
Cc1cc(C)c(Oc2nc(N3CCN(C(=O)C(C)(C)C)CC3)ccc2NS(C)(=O)=O)c(C)c1 [Compound I-34]	> 25 µM
Cc1cc(C)c(Oc2nc(N3C4CC3CN(C(=O)C3CC3)C4)ccc2NS(C)(=O)=O)c(C)c1 [Compound I-35]	> 25 µM
Cc1cc(C)c(Oc2nc(-c3cnc(C#N)c(Cl)c3)ccc2NS(C)(=O)=O)c(C)c1 [Compound I-36]	< 1 µM
Cc1cc(C2CC2)nc(C)c1Oc1nc(-c2cncc(Cl)c2)ccc1NS(C)(=O)=O [Compound I-37]	< 1 µM
Cc1cc(C)c(Oc2nc(N3CC4(CN(C(=O)C5CC5)C4)C3)ccc2NS(C)(=O)=O)c(C)c1 [Compound I-38]	> 25 µM
Cc1cc(C)c(Oc2nc(-c3cncc(C#N)c3)ccc2NS(C)(=O)=O)c(C)c1 [Compound I-39]	< 1 µM
Cc1cc(C)c(Oc2nc(-c3cncc(Cl)c3)ccc2NS(C)(=O)=O)c(C2CC2)n1 [Compound I-40]	< 1 µM
Cc1cc(C)c(Oc2nc(-c3cncc(Cl)c3)ccc2NS(=O)(=O)C2COC2)c(C)c1 [Compound I-41]	< 1 µM
Cc1cc(C)c(Oc2nc(-c3cncc(Cl)c3)ccc2NS(=O)(=O)C2CC2)c(C)n1 [Compound I-238]	1 to 10 µM
Cc1cc(C)c(Oc2nc(-c3ccnc(C#N)c3)ccc2NS(C)(=O)=O)c(C)n1 [Compound I-239]	< 1 µM
Cc1cc(C(F)(F)F)nc(C)c1Oc1nc(-c2cncc(C#N)c2)ccc1NS(C)(=O)=O [Compound I-240]	< 1 µM

From patent publication US20250228835A1, “PYRIDINYLOXYPYRIDINES AND RELATED COMPOUNDS AND THEIR USE IN TREATING MEDICAL CONDITIONS” (Rectify Pharmaceuticals, Inc., priority 2024, published 2025)
